# Laboratory results as given in PMC6273692, “Binding Mode and Selectivity of Steroids towards Glucose-6-phosphate Dehydrogenase from the Pathogen Trypanosoma cruzi” (Molecules, 2016).
# Read-outs that look alike come from different tables or passages of the source.
# How the values were obtained:
# TcG6PDH wildtype = TcG6PDH wildtype (Trypanosoma cruzi, UniProt Q1WBU6); experiment: Inhibitor assay with wildtype TcG6PDH (NADPH formation at 340 nm); format: biochemical; settings: for activity at 30 µM: read-out: G6PDH Activity [%] ± SD at 30 µM Compound; for increase of potency towards the parasite enzyme compared to the parental scaffold (EA): vs EA; for inhibition at 30 µM: read-out: inhibition at 30 μM compound
# human G6PDH = settings: cited from earlier work; for increase of inhibition of human G6PDH compared to the parental scaffold (EA): vs EA; for IC50: read-out: IC50 (anti-human G6PDH activity)
# T. cruzi G6PDH (TcG6PDH) = settings: cited from earlier work
# G6PDH from T. brucei = settings: cited from earlier work
# WT TcG6PDH = experiment: Kinetic assay of WT TcG6PDH with substrates
# Experimental: G6PDH activity was determined at ~25 °C by monitoring NADPH (ε340 = 6220 M^−1·cm^−1) formation at 340 nm. All assays were performed in buffer B (50 mM Tris pH 7.5, 5 mM MgCl2) in a final reaction volume of 150 µL and started by addition of glucose-6-phosphate (G6P). For WT TcG6PDH, the Michaelis’ constants (KM) and the maximum initial velocity (Vmax) were determined varying reciprocally the substrate (10, 50, 200, 1000 and 5000 µM G6P) and coenzyme (5, 10, 50, 250 and 625 µM NADP^+) concentrations. For the mutants, the kinetic characterization was performed at a fixed saturating concentration of the corresponding co-substrate (i.e., 6 mM G6P and 700 µM NADP^+) and varying concentrations of the substrate (25, 50, 70, 100, 250, 350, 500 and 700 µM NADP^+, and 0.005, 0.025, 0.05, 0.25, 0.65, 1, 2.5 and 5 mM G6P). […] The first 30 s of the reaction were used to calculate initial velocities that were normalized by the corresponding enzyme concentration in the assay. All measurements were performed in triplicate using a Cary 50 Bio spectrophotometer (Agilent Technologies, Santa Clara, CA, USA). The initial rates were determined with the Origin Pro 8.0 software (OriginLab Corporation, Northampton, MA, USA), and the apparent kinetic constants were calculated by nonlinear regression using the GraphPad Prism 5.0 software (GraphPad Inc., San Diego, CA, USA). The data were fitted to the Cleland or Michaelis-Menten equation to obtain the corresponding kinetic parameters.
# [1] = system: African trypanosomes expressing an ectopic copy of L. mexicana G6PDH; settings: endogenous G6PDH deficient; cited from earlier work
# Chain of TcG6PDH wildtype (Q1WBU6 entry or part of it): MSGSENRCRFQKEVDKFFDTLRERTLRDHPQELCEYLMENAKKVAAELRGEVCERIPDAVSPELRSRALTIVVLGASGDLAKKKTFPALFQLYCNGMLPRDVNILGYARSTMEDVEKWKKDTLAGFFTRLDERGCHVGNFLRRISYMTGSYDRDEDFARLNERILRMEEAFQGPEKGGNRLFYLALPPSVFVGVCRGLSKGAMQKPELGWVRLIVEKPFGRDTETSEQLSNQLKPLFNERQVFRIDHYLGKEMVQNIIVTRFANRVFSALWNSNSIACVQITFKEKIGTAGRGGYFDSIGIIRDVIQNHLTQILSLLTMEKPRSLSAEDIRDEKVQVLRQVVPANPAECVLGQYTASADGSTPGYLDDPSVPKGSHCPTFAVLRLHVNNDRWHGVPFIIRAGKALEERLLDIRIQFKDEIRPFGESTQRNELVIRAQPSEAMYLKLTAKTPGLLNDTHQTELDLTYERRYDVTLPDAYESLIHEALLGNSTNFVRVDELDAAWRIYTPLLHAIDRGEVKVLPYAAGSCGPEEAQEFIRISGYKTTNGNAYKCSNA
structure (smiles),measurement,setting,value
C[C@]12CC[C@H](NS(N)(=O)=O)CC1CCC1C2CC[C@]2(C)C(=O)CCC12 (stereo partly shown) [Compound 2],IC50,TcG6PDH wildtype,2200 nM
same,activity at 30 µM,TcG6PDH wildtype,9 ± 1%
same,increase of potency towards the parasite enzyme compared to the parental scaffold (EA),TcG6PDH wildtype,≤ 2 fold
same,increase of inhibition of human G6PDH compared to the parental scaffold (EA),human G6PDH,~ 10 fold
"C[C@]12CC[C@H](O)CC1CCC1C2CC[C@]2(C)C(=O)C(Br)CC12 (stereo partly shown) [Compound 16Br-EA, 16-bromo epiandrosterone, reference compound]",activity against human G6PDH relative to TcG6PDH,human G6PDH,almost two orders of magnitude less active
"C[C@]12CC[C@H](O)CC1=CC[C@@H]1[C@@H]2CC[C@]2(C)C(=O)CC[C@@H]12 [DHEA, dehydroepiandrosterone]",Ki,T. cruzi G6PDH (TcG6PDH),2600 to 25000 nM
same,Ki,human G6PDH,6000 to 9000 nM
same,Ki,G6PDH from T. brucei,1700 nM
"O=C[C@H](O)[C@@H](O)[C@H](O)[C@H](O)COP(=O)(O)O [Compound G6P, glucose-6-phosphate]",Km,"WT TcG6PDH; read-out: KM G6P, apparent, triplicate",77 ± 20 µM
same,kcat,WT TcG6PDH; varying G6P,62 ± 3 s⁻¹
NC(=O)c1ccc[n+]([C@@H]2O[C@H](COP(=O)([O-])OP(=O)(O)OC[C@H]3O[C@@H](n4cnc5c(N)ncnc54)[C@H](OP(=O)(O)O)[C@@H]3O)[C@@H](O)[C@H]2O)c1 [NADP^+],Km,"WT TcG6PDH; read-out: KM NADP^+, apparent, triplicate",16 ± 3 µM
same,kcat,WT TcG6PDH; varying NADP+,52 ± 2 s⁻¹
CCNC(=O)N[C@H]1CC[C@@]2(C)C(CCC3C2CC[C@]2(C)C(=O)CCC32)C1 (stereo partly shown) [Compound 1],IC50,TcG6PDH wildtype,1500 nM
same,activity at 30 µM,TcG6PDH wildtype,7 ± 1%
same,increase of potency towards the parasite enzyme compared to the parental scaffold (EA),TcG6PDH wildtype,≤ 2 fold
same,increase of inhibition of human G6PDH compared to the parental scaffold (EA),human G6PDH,~ 10 fold
C[C@]12CC[C@H](NS(N)(=O)=O)CC1CCC1C2CC[C@@]2(C)C1CC[C@@H]2C(=O)CO (stereo partly shown) [Compound 3],activity at 30 µM,TcG6PDH wildtype,30 ± 2%
same,inhibition at 30 µM,TcG6PDH wildtype,60 to 70%
same,IC50,human G6PDH,~2000 nM
C[C@]12CC[C@H](O)CC1CCC1C2CC[C@@]2(C)C1CC[C@@H]2C(=O)CO (stereo partly shown) [Compound 4],activity at 30 µM,TcG6PDH wildtype,43 ± 2%
same,inhibition at 30 µM,TcG6PDH wildtype,60 to 70%
same,IC50,human G6PDH,~2000 nM
"C[C@]12CC[C@H](O)C[C@@H]1CC[C@@H]1[C@@H]2CC[C@]2(C)C(=O)CC[C@@H]12 [EA, epiandrosterone, reference compound]",IC50,TcG6PDH wildtype,3000 ± 400 nM
same,activity at 30 µM,TcG6PDH wildtype,12 ± 2%
same,Ki,T. cruzi G6PDH (TcG6PDH),1000 to 5600 nM
same,Ki,human G6PDH,3000 nM
same,Ki,G6PDH from T. brucei,500 nM
same,sensitivity of trypanosomes expressing L. mexicana G6PDH,[1],resistant
